In ChEMBL document CHEMBL4825753 (J Med Chem, 2021):
The source made the active and inactive calls. The rule behind the calls is not given here.

Tests used:
[1] = target: T1, Receptor-type tyrosine-protein kinase FLT3 (Homo sapiens, UniProt P36888); experiment: Inhibition of FLAG-tagged FLT3 (unknown origin) transfected in Cos-7 cells assessed as phosphorylation level incubated for 1 hr by ELISA; type: cell-based
T1 sequence (P36888 whole entry): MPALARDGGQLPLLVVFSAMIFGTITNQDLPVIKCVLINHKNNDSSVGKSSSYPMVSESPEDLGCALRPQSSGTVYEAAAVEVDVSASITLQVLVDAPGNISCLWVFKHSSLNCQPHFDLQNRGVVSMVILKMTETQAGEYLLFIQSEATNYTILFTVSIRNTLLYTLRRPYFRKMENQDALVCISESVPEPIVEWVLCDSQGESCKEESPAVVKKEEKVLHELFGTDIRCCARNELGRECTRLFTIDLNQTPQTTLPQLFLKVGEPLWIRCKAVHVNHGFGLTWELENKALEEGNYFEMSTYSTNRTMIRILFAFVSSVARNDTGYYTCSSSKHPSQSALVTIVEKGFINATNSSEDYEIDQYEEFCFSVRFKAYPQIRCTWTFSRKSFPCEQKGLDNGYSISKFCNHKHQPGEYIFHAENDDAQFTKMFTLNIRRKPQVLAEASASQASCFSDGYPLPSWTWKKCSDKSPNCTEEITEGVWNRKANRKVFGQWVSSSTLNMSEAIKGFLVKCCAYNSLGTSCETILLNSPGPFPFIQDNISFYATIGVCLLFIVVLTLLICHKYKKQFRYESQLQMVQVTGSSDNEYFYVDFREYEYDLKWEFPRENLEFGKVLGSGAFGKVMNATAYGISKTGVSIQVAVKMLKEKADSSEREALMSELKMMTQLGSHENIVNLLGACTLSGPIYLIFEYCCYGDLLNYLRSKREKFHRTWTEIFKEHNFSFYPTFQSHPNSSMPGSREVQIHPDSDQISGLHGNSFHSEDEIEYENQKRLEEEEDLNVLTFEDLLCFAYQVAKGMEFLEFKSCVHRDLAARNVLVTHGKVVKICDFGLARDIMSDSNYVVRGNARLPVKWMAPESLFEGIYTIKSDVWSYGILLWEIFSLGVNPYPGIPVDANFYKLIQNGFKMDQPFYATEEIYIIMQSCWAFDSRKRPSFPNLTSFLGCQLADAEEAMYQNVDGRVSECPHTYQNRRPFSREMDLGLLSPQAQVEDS

[2] = target: T2, Tyrosine-protein kinase receptor TYRO3 (Homo sapiens, UniProt Q06418); experiment: Inhibition of FLAG-tagged Tyro3 (unknown origin) transfected in Cos-7 cells assessed as phosphorylation level incubated for 1 hr by ELISA; type: cell-based
T2 sequence (Q06418 whole entry): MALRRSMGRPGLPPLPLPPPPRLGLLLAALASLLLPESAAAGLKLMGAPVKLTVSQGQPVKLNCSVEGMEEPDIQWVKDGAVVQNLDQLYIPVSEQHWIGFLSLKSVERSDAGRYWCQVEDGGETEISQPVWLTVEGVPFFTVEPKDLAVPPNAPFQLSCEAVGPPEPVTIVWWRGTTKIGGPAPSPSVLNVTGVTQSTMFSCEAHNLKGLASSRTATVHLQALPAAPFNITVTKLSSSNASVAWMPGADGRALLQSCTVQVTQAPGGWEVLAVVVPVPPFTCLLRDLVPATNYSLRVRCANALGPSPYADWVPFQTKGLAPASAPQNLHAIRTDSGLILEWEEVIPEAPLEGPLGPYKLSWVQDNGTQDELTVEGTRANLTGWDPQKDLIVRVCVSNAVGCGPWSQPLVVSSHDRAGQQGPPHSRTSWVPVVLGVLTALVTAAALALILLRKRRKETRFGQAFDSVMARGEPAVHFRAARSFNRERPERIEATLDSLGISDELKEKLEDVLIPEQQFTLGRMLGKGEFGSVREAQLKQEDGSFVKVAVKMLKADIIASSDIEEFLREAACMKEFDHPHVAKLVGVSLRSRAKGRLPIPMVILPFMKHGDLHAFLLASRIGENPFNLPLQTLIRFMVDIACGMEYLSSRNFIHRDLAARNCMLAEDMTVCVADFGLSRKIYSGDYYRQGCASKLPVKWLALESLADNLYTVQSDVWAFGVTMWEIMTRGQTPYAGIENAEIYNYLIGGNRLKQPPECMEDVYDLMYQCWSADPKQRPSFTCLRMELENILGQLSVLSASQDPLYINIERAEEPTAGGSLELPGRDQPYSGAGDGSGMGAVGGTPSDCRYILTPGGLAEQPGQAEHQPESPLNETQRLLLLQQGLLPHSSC

[3] = Lipophilicity, log D of the compound at pH 7.4; type: physicochemical; conditions: buffer
[4] = target: T3, Tyrosine-protein kinase receptor UFO (Homo sapiens, UniProt P30530); experiment: Inhibition of FLAG-tagged AXL (unknown origin) transfected in Cos-7 cells assessed as phosphorylation level incubated for 1 hr by ELISA; type: cell-based
T3 sequence (P30530 whole entry): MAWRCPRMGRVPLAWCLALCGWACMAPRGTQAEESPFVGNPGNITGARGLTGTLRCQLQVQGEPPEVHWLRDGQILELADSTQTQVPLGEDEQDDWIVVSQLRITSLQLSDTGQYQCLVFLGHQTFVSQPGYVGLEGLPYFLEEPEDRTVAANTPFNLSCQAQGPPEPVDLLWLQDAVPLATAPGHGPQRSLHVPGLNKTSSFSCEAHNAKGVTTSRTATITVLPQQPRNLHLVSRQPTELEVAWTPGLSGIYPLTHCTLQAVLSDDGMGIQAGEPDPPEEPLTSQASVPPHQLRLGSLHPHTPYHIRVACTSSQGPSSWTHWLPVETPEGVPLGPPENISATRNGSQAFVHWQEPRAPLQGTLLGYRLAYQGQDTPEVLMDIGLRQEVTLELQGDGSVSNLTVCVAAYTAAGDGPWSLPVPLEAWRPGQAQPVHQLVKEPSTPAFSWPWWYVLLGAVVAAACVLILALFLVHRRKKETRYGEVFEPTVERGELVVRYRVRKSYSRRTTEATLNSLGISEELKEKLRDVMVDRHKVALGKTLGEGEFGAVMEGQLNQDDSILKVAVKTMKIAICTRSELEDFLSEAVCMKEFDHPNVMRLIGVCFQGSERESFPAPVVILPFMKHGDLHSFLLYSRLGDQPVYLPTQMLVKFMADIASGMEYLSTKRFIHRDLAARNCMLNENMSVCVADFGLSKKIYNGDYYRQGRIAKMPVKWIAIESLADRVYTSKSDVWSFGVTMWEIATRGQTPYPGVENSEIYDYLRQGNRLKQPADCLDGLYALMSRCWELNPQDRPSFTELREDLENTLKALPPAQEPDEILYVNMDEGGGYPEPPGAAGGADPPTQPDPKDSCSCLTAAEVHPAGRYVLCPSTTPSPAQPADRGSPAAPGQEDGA

[5] = Induction efferocytosis in human PBMC assessed as CD14-positive monocytes
[6] = Photostability of compound assessed as half life; type: physicochemical
[7] = Fraction unbound in C57BL/6J mouse implanted with mouse BaF3 cells transfected with MER in at 3 to 100 mg/kg, po bid for 6 days; type: ADME, organism-based; conditions: in vivo, dose 3-100 mg/kg, time 6 day
[8] = tested on: BaF3; experiment: Antitumour activity against mouse BaF3 cells transfected with MER implanted in C57BL/6J mouse assessed as reduction in tumour growth at 3 to 100 mg/kg, po bid for 6 days; type: functional, organism-based; conditions: dose 3-100 mg/kg, time 6.0 day
[9] = tested on: BaF3; experiment: Antitumour activity against mouse BaF3 cells transfected with MER implanted in C57BL/6J mouse assessed as reduction in MER phosphorylation at 30 to 100 mg/kg, po bid for 6 days by western blot analysis; type: functional, organism-based; conditions: dose 30-100 mg/kg, time 6.0 day
[10] = tested on: BaF3; experiment: Growth inhibition of mouse BaF3 cells transfected with Tyro3 assessed as inhibition of cell growth incubated for 72 hrs by Cell-titer-Glo assay; type: functional
[11] = Fraction unbound in C57BL/6J mouse implanted with mouse BaF3 cells transfected with AXL in at 3 to 100 mg/kg, po bid for 6 days; type: ADME, organism-based; conditions: in vivo, dose 3-100 mg/kg, time 6 day
[12] = tested on: BaF3; experiment: Growth inhibition of mouse BaF3 cells assessed as inhibition of cell growth incubated for 72 hrs by Cell-titer-Glo assay; type: functional
[13] = tested on: BaF3; experiment: Growth inhibition of mouse BaF3 cells transfected with MER assessed as inhibition of cell growth incubated for 72 hrs by Cell-titer-Glo assay; type: functional
[14] = tested on: BaF3; experiment: Growth inhibition of mouse BaF3 cells transfected with FLT3 assessed as inhibition of cell growth incubated for 72 hrs by Cell-titer-Glo assay; type: functional
[15] = tested on: MC-38; experiment: Antitumour activity against mouse MC38 cells implanted in C57BL6 mouse assessed as increase in survival at 100 mg/kg, po bid for 2 weeks co-treatment with anti-PD1 further treated with ionizing radiation; type: functional, organism-based
[16] = tested on: BaF3; experiment: Antitumour activity against mouse BaF3 cells transfected with AXL implanted in C57BL/6J mouse assessed as reduction in tumour growth at 100 mg/kg, po bid for 6 days; type: functional, organism-based; conditions: time 6.0 day
[17] = tested on: BaF3; experiment: Antitumour activity against mouse BaF3 cells transfected with AXL implanted in C57BL/6J mouse assessed as reduction in AXL phosphorylation at 30 to 100 mg/kg, po bid for 6 days western blot analysis; type: functional, organism-based; conditions: dose 30-100 mg/kg, time 6.0 day
[18] = tested on: BaF3; experiment: Growth inhibition of mouse BaF3 cells transfected with AXL assessed as inhibition of cell growth incubated for 72 hrs by Cell-titer-Glo assay; type: functional

Row | Compound | IC50 [1] | IC50 [2] | logD [3] | IC50 [4] | pIC50 [5] | half-life [6] | further results
1 | Cc1cc(-c2c(C)nn(C)c2C)cnc1-c1nnc(N(C)Cc2ccc3ncc(-c4ccc(CN(C)C)nc4)n3c2)o1 | > 31.6 µM | > 31.6 µM | 2.5 | 1.58 µM |  |  | 
2 | Cc1cc(-c2c(C)nn(C)c2C)cnc1-c1nnc(N(C)Cc2ccc3ncc(-c4cnn(CCN(C)C)c4)n3c2)o1 | > 31.6 µM | > 31.6 µM | 2.7 | 1 µM | 7.1 |  | 
3 | Cc1cc(-c2c(C)nn(C)c2C)ccc1-c1nnc(N(C)Cc2ccc3ncc(-c4cnn(CCN(C)C)c4)n3c2)o1 | > 31.6 µM | 12.6 µM | 3.5 | 0.126 µM | 7.8 |  | 
4 | Cc1cc(-c2c(C)nn(C)c2C)ccc1-c1nnc(N(C)Cc2ccc3ncc(C(=O)N(C)C)n3c2)o1 | 10 µM | 25.1 µM | 3.3 | 0.398 µM | 7.1 | 17.8 days | 
5 | Cc1cc(-c2c(C)nn(C)c2C)cnc1-c1nnc(N(C)Cc2ccc3ncc(-c4ccc(CN(C)C)cn4)n3c2)o1 | 25.1 µM | > 31.6 µM | 3 | 0.126 µM | 7.2 |  | 
6 | Cc1cc(-c2c(C)nn(C)c2C)ccc1-c1nnc(N(C)Cc2ccc3ncc(-c4ccccc4)n3c2)o1 | 7.94 µM | 20 µM | 5.3 | 0.2 µM | 6.7 | 11.4 days | 
7 | Cc1cc(-c2c(C)nn(C)c2C)ccc1-c1nnc(N(C)Cc2ccc3ncc(-c4cnn(C)c4)n3c2)o1 | 12.6 µM | 12.6 µM | 4 | 0.0631 µM | 7.2 | 11.4 days | 
8 | Cc1cc(-c2c(C)nn(C)c2C)ccc1-c1nnc(N(C)Cc2ccc3ncc(C4CCN(C)CC4)n3c2)o1 | > 31.6 µM | > 31.6 µM | 2.5 | 1.26 µM | 6.9 |  | 
9 | CN1CCN(Cc2ccc(-c3ccc(CO[C@H]4CCC[C@@H]4NC(=O)c4cc(-c5cnn(C)c5)cnc4N)cc3)cc2)CC1 | 10 µM |  | 2.8 |  |  |  | fraction unbound at 144 h [7]: 0.14; Activity [8]: Active; Activity [9]: Active; GI50 [10]: 3.16 µM; fraction unbound at 144 h [11]: 0.14; GI50 [12]: 12.6 µM; GI50 [13]: 0.00794 µM; GI50 [14]: 5.01 µM; Activity [15]: Active; Activity [16]: Active; Activity [17]: Active; GI50 [18]: 0.0501 µM
10 | Cc1cc(-c2c(C)nn(C)c2C)cnc1-c1nnc(N(C)Cc2ccc3ncc(-c4cccc(CN(C)C)c4)n3c2)o1 | > 31.6 µM | > 31.6 µM | 3 | 0.316 µM | 7 |  | 
